From patent EP4410284A1, “COMPOUND AND METHOD FOR THE TREATMENT OF ZELLWEGER SPECTRUM DISORDER” (Apteeus, priority 2023, dated 2024)
Read-outs that look alike come from different tables or passages of the source.

Tests used:
GM16513 cells [1] = experiment: Catalase import immunofluorescence, high-content screening (% importing cells); format: cell-based, human; conditions: GM16513 cells, 3 days
PEX405 cells [2] = experiment: as above; format: cell-based, human; conditions: PEX405 cells, 3 days
PEX405 cells [3] = format: cell-based; conditions: 3 days, PI positive cells (dead cells)
Procedure: (§1) Images were acquired using the EnSight multimode plate reader (PerkinElmer) and analysis was done using Columbus analysis software (PerkinElmer). […] Then the total number of cells and the % of dead cells was calculated.
(§2) All HDAC inhibitors were tested at 1.3 and 10 µM for 3 days on GM16513 and PEX405 cells.

GM16513 cells [4] = format: cell-based; conditions: 3 days, PI positive cells (dead cells)
Procedure: as §1, §2

COc1cc(C=CC(=O)O)cc(OC)c1O (stereo in doubt) [Sinapinic acid]
% Importing cells (GM16513 cells [1]; 1.3 µM): 21%
% Importing cells (GM16513 cells [1]; 10 µM): 18%
% Importing cells (PEX405 cells [2]; 1.3 µM): 3%
% Importing cells (PEX405 cells [2]; 10 µM): 3%

O=C(NO)c1cccc2ccccc12 [1-Naphthohydroxamic acid]
% Importing cells (GM16513 cells [1]; 1.3 µM): 12%
% Importing cells (GM16513 cells [1]; 10 µM): 13%
% Importing cells (PEX405 cells [2]; 1.3 µM): 3%
% Importing cells (PEX405 cells [2]; 10 µM): 2%
% PI+ cells (PEX405 cells [3]; 1.3 µM): 0%
% PI+ cells (PEX405 cells [3]; 10 µM): 0%
% PI+ cells (GM16513 cells [4]; 1.3 µM): 1%
% PI+ cells (GM16513 cells [4]; 10 µM): 1%

O=C(NO)c1cnc(NC2(c3ccccc3)CC2)nc1 [ACY-738]
% Importing cells (GM16513 cells [1]; 1.3 µM): 31%
% Importing cells (GM16513 cells [1]; 10 µM): 85%
% Importing cells (PEX405 cells [2]; 1.3 µM): 5%
% Importing cells (PEX405 cells [2]; 10 µM): 31%
% PI+ cells (PEX405 cells [3]; 1.3 µM): 1%
% PI+ cells (PEX405 cells [3]; 10 µM): 1%
% PI+ cells (GM16513 cells [4]; 1.3 µM): 1%
% PI+ cells (GM16513 cells [4]; 10 µM): 3%

O=C(NO)c1cnc(NC2(c3cccc(F)c3)CCCCC2)nc1 [ACY-775]
% Importing cells (GM16513 cells [1]; 1.3 µM): 21%
% Importing cells (GM16513 cells [1]; 10 µM): 47%
% Importing cells (PEX405 cells [2]; 1.3 µM): 4%
% Importing cells (PEX405 cells [2]; 10 µM): 9%
% PI+ cells (PEX405 cells [3]; 1.3 µM): 0%
% PI+ cells (PEX405 cells [3]; 10 µM): 1%
% PI+ cells (GM16513 cells [4]; 1.3 µM): 2%
% PI+ cells (GM16513 cells [4]; 10 µM): 2%

Nc1ccc(-c2cccs2)cc1NC(=O)c1ccc2nc(N3CCNCC3)ccc2c1 [ACY-957]
% Importing cells (GM16513 cells [1]; 1.3 µM): 74%
% Importing cells (GM16513 cells [1]; 10 µM): 0%
% Importing cells (PEX405 cells [2]; 1.3 µM): 16%
% Importing cells (PEX405 cells [2]; 10 µM): 13%
% PI+ cells (PEX405 cells [3]; 1.3 µM): 1%
% PI+ cells (PEX405 cells [3]; 10 µM): 55%
% PI+ cells (GM16513 cells [4]; 1.3 µM): 1%
% PI+ cells (GM16513 cells [4]; 10 µM): 38%

CC(C)(C)c1ccc(C(=O)Nc2ccc(C(=O)NO)cc2)cc1 [AES-350]
% Importing cells (GM16513 cells [1]; 1.3 µM): 22%
% Importing cells (GM16513 cells [1]; 10 µM): 45%
% Importing cells (PEX405 cells [2]; 1.3 µM): 5%
% Importing cells (PEX405 cells [2]; 10 µM): 10%
% PI+ cells (PEX405 cells [3]; 1.3 µM): 1%
% PI+ cells (PEX405 cells [3]; 10 µM): 1%
% PI+ cells (GM16513 cells [4]; 1.3 µM): 2%
% PI+ cells (GM16513 cells [4]; 10 µM): 5%

CC(=O)N[C@@H](CCCCN)C(=O)Nc1ccc2c(C)cc(=O)oc2c1 [Ac-Lys-AMC]
% Importing cells (GM16513 cells [1]; 1.3 µM): 18%
% Importing cells (GM16513 cells [1]; 10 µM): 14%
% Importing cells (PEX405 cells [2]; 1.3 µM): 3%
% Importing cells (PEX405 cells [2]; 10 µM): 1%
% PI+ cells (PEX405 cells [3]; 1.3 µM): 0%
% PI+ cells (PEX405 cells [3]; 10 µM): 0%
% PI+ cells (GM16513 cells [4]; 1.3 µM): 1%
% PI+ cells (GM16513 cells [4]; 10 µM): 1%

Nc1ccccc1NC(=O)c1cnccn1 [BG45]
% Importing cells (GM16513 cells [1]; 1.3 µM): 15%
% Importing cells (GM16513 cells [1]; 10 µM): 30%
% Importing cells (PEX405 cells [2]; 1.3 µM): 4%
% Importing cells (PEX405 cells [2]; 10 µM): 5%
% PI+ cells (PEX405 cells [3]; 1.3 µM): 1%
% PI+ cells (PEX405 cells [3]; 10 µM): 2%
% PI+ cells (GM16513 cells [4]; 1.3 µM): 1%
% PI+ cells (GM16513 cells [4]; 10 µM): 1%

Nc1ccccc1NC(=O)CCCCCCC(=O)Nc1ccccc1 [BML-210]
% Importing cells (GM16513 cells [1]; 1.3 µM): 24%
% Importing cells (GM16513 cells [1]; 10 µM): 73%
% Importing cells (PEX405 cells [2]; 1.3 µM): 7%
% Importing cells (PEX405 cells [2]; 10 µM): 19%
% PI+ cells (PEX405 cells [3]; 1.3 µM): 1%
% PI+ cells (PEX405 cells [3]; 10 µM): 1%
% PI+ cells (GM16513 cells [4]; 1.3 µM): 2%
% PI+ cells (GM16513 cells [4]; 10 µM): 3%

CC(=O)Nc1ccc(C(=O)Nc2ccc(F)cc2N)cc1 [BRD3308]
% Importing cells (GM16513 cells [1]; 1.3 µM): 12%
% Importing cells (GM16513 cells [1]; 10 µM): 16%
% Importing cells (PEX405 cells [2]; 1.3 µM): 4%
% Importing cells (PEX405 cells [2]; 10 µM): 5%
% PI+ cells (PEX405 cells [3]; 1.3 µM): 1%
% PI+ cells (PEX405 cells [3]; 10 µM): 1%
% PI+ cells (GM16513 cells [4]; 1.3 µM): 2%
% PI+ cells (GM16513 cells [4]; 10 µM): 2%

O=C(NO)c1cccc(C(=O)NCCc2ccccc2)c1 [BRD73954]
% Importing cells (GM16513 cells [1]; 1.3 µM): 19%
% Importing cells (GM16513 cells [1]; 10 µM): 23%
% Importing cells (PEX405 cells [2]; 1.3 µM): 3%
% Importing cells (PEX405 cells [2]; 10 µM): 4%
% PI+ cells (PEX405 cells [3]; 1.3 µM): 0%
% PI+ cells (PEX405 cells [3]; 10 µM): 1%
% PI+ cells (GM16513 cells [4]; 1.3 µM): 1%
% PI+ cells (GM16513 cells [4]; 10 µM): 1%

CCN1CCN(C(c2cccnc2)c2cc(Cl)c3cccnc3c2O)CC1 (centres unmarked) [BRD 4354]
% Importing cells (GM16513 cells [1]; 1.3 µM): 21%
% Importing cells (GM16513 cells [1]; 10 µM): 30%
% Importing cells (PEX405 cells [2]; 1.3 µM): 4%
% Importing cells (PEX405 cells [2]; 10 µM): 10%
% PI+ cells (PEX405 cells [3]; 1.3 µM): 0%
% PI+ cells (PEX405 cells [3]; 10 µM): 3%
% PI+ cells (GM16513 cells [4]; 1.3 µM): 1%
% PI+ cells (GM16513 cells [4]; 10 µM): 3%

CC(=O)Nc1ccc(C(=O)Nc2cc(-c3cccs3)ccc2N)cc1 [BRD-6929]
% Importing cells (GM16513 cells [1]; 1.3 µM): 66%
% Importing cells (GM16513 cells [1]; 10 µM): 88%
% Importing cells (PEX405 cells [2]; 1.3 µM): 20%
% Importing cells (PEX405 cells [2]; 10 µM): 38%
% PI+ cells (PEX405 cells [3]; 1.3 µM): 1%
% PI+ cells (PEX405 cells [3]; 10 µM): 1%
% PI+ cells (GM16513 cells [4]; 1.3 µM): 1%
% PI+ cells (GM16513 cells [4]; 10 µM): 3%

CCCCOc1ccc(CC(=O)NO)cc1 [Bufexamac]
% Importing cells (GM16513 cells [1]; 1.3 µM): 26%
% Importing cells (GM16513 cells [1]; 10 µM): 25%
% Importing cells (PEX405 cells [2]; 1.3 µM): 4%
% Importing cells (PEX405 cells [2]; 10 µM): 50%
% PI+ cells (PEX405 cells [3]; 1.3 µM): 1%
% PI+ cells (PEX405 cells [3]; 10 µM): 0%
% PI+ cells (GM16513 cells [4]; 1.3 µM): 2%
% PI+ cells (GM16513 cells [4]; 10 µM): 1%

CC(C)(C)OC(=O)Nc1ccc(-c2cc(C(=O)NCCCCCCC(=O)NO)no2)cc1 [CAY10603]
% Importing cells (GM16513 cells [1]; 1.3 µM): 73%
% Importing cells (GM16513 cells [1]; 10 µM): 85%
% Importing cells (PEX405 cells [2]; 1.3 µM): 22%
% Importing cells (PEX405 cells [2]; 10 µM): 11%
% PI+ cells (PEX405 cells [3]; 1.3 µM): 1%
% PI+ cells (PEX405 cells [3]; 10 µM): 35%
% PI+ cells (GM16513 cells [4]; 1.3 µM): 2%
% PI+ cells (GM16513 cells [4]; 10 µM): 31%
